ChEMBL document CHEMBL1201862, “PubChem BioAssay data set” (2004)
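All cell lines were grown in 96-well plates and treated with compound for 48 hours. GI50 = concentration required for 50% inhibition of growth.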 Calls of active or inactive are those of the source. Cut-off read from the data, not from the text of the source: active = GI50 up to about 1.1 µM and inactive = higher.

What was measured:
Assay in all cases: NCI anticancer screen, dose series, 48 h
MCF7 = test system: MCF7
HCC 2998 = test system: HCC 2998
OVCAR-5 = test system: OVCAR-5
SF-295 = test system: SF-295
SN12C = test system: SN12C
IGROV-1 = test system: IGROV-1
SK-OV-3 = test system: SK-OV-3
NCI-H522 = test system: NCI-H522
U-251 = test system: U-251
HT-29 = test system: HT-29
MDA-N = test system: MDA-N
HOP-62 = test system: HOP-62
RXF 393 = test system: RXF 393
SF-268 = test system: SF-268
KM12 = test system: KM12
COLO 205 = test system: COLO 205
UACC-62 = test system: UACC-62
ACHN = test system: ACHN
UACC-257 = test system: UACC-257
MDA-MB-231 = test system: MDA-MB-231
CCRF-CEM = test system: CCRF-CEM
MOLT-4 = test system: MOLT-4
CAKI-1 = test system: CAKI-1
786-0 = test system: 786-0
BT-549 = test system: BT-549
NCI-H226 = test system: NCI-H226
MDA-MB-435 = test system: MDA-MB-435
HOP-92 = test system: HOP-92
UO-31 = test system: UO-31
OVCAR-8 = test system: OVCAR-8
TK-10 = test system: TK-10
HCT-116 = test system: HCT-116
SW-620 = test system: SW-620
M14 = test system: M14
NCI-H23 = test system: NCI-H23
OVCAR-4 = test system: OVCAR-4
A549 = test system: A549
SK-MEL-5 = test system: SK-MEL-5
DU-145 = test system: DU-145
K562 = test system: K562
OVCAR-3 = test system: OVCAR-3
NCI/ADR-RES = test system: NCI/ADR-RES
SF-539 = test system: SF-539
SK-MEL-28 = test system: SK-MEL-28
HCT-15 = test system: HCT-15
HL-60 = test system: HL-60
A498 = test system: A498
LOX IMVI = test system: LOX IMVI
EKVX = test system: EKVX
NCI-H460 = test system: NCI-H460
SNB-19 = test system: SNB-19
T47D = test system: T47D
Hs-578T = test system: Hs-578T
SK-MEL-2 = test system: SK-MEL-2
PC-3 = test system: PC-3
SR = test system: SR
Malme-3M = test system: Malme-3M
RPMI-8226 = test system: RPMI-8226
SNB-75 = test system: SNB-75

O=P1(O)c2ccccc2CS(=O)(=O)Cc2ccccc21
GI50 (MCF7): > 100 µM (inactive) | GI50 (HCC 2998): > 100 µM (inactive) | GI50 (OVCAR-5): > 100 µM (inactive) | GI50 (SF-295): > 100 µM (inactive) | GI50 (SN12C): > 100 µM (inactive) | GI50 (IGROV-1): > 100 µM (inactive) | GI50 (SK-OV-3): > 100 µM (inactive) | GI50 (NCI-H522): > 100 µM (inactive) | GI50 (U-251): > 100 µM (inactive) | GI50 (HT-29): > 100 µM (inactive) | GI50 (MDA-N): > 100 µM (inactive) | GI50 (HOP-62): > 100 µM (inactive) | GI50 (RXF 393): > 100 µM (inactive) | GI50 (SF-268): > 100 µM (inactive) | GI50 (KM12): > 100 µM (inactive) | GI50 (COLO 205): > 100 µM (inactive) | GI50 (UACC-62): > 100 µM (inactive) | GI50 (ACHN): > 100 µM (inactive) | GI50 (UACC-257): > 100 µM (inactive) | GI50 (MDA-MB-231): > 100 µM (inactive) | GI50 (CCRF-CEM): > 100 µM (inactive) | GI50 (MOLT-4): > 100 µM (inactive) | GI50 (CAKI-1): > 100 µM (inactive) | GI50 (786-0): > 100 µM (inactive) | GI50 (BT-549): > 100 µM (inactive) | GI50 (NCI-H226): > 100 µM (inactive) | GI50 (MDA-MB-435): > 100 µM (inactive) | GI50 (HOP-92): > 100 µM (inactive) | GI50 (UO-31): > 100 µM (inactive) | GI50 (OVCAR-8): > 100 µM (inactive) | GI50 (TK-10): > 100 µM (inactive) | GI50 (HCT-116): > 100 µM (inactive) | GI50 (SW-620): > 100 µM (inactive) | GI50 (M14): > 100 µM (inactive) | GI50 (NCI-H23): > 100 µM (inactive) | GI50 (OVCAR-4): > 100 µM (inactive) | GI50 (A549): > 100 µM (inactive) | GI50 (SK-MEL-5): > 100 µM (inactive) | GI50 (DU-145): > 100 µM (inactive) | GI50 (K562): > 100 µM (inactive) | GI50 (OVCAR-3): > 100 µM (inactive) | GI50 (NCI/ADR-RES): > 100 µM (inactive) | GI50 (SF-539): > 100 µM (inactive) | GI50 (SK-MEL-28): > 100 µM (inactive) | GI50 (HCT-15): > 100 µM | GI50 (HL-60): > 100 µM (inactive) | GI50 (A498): > 100 µM (inactive) | GI50 (LOX IMVI): > 100 µM (inactive) | GI50 (EKVX): > 100 µM (inactive) | GI50 (NCI-H460): > 100 µM (inactive) | GI50 (SNB-19): > 100 µM (inactive) | GI50 (T47D): > 100 µM (inactive) | GI50 (Hs-578T): > 100 µM (inactive) | GI50 (SK-MEL-2): > 100 µM (inactive) | GI50 (PC-3): > 100 µM (inactive)

CC(C)=CCN1c2ccc(Cl)cc2NC(=O)CC1C (centres undefined)
GI50 (MCF7): 21.4 µM (inactive) | GI50 (HCC 2998): 44.4 µM (inactive) | GI50 (OVCAR-5): 59.4 µM (inactive) | GI50 (SF-295): 35.1 µM (inactive) | GI50 (SN12C): 19.6 µM (inactive) | GI50 (IGROV-1): 21.8 µM (inactive) | GI50 (SK-OV-3): 34.7 µM (inactive) | GI50 (NCI-H522): 12 µM (inactive) | GI50 (U-251): 27.5 µM (inactive) | GI50 (HT-29): 17.5 µM (inactive) | GI50 (MDA-N): 21.7 µM (inactive) | GI50 (HOP-62): 23.5 µM (inactive) | GI50 (RXF 393): 24.9 µM (inactive) | GI50 (SF-268): 34.7 µM (inactive) | GI50 (KM12): 28.3 µM (inactive) | GI50 (COLO 205): 21.6 µM (inactive) | GI50 (ACHN): 19.1 µM (inactive) | GI50 (UACC-257): 21.2 µM (inactive) | GI50 (MDA-MB-231): 19.3 µM (inactive) | GI50 (CCRF-CEM): 38.6 µM (inactive) | GI50 (MOLT-4): 48.4 µM (inactive) | GI50 (CAKI-1): 15.8 µM (inactive) | GI50 (786-0): 18.2 µM (inactive) | GI50 (BT-549): 21.8 µM (inactive) | GI50 (NCI-H226): 7.94 µM (inactive) | GI50 (MDA-MB-435): 19.5 µM (inactive) | GI50 (HOP-92): 14.1 µM (inactive) | GI50 (UO-31): 31.6 µM (inactive) | GI50 (OVCAR-8): 19.1 µM (inactive) | GI50 (TK-10): 35.2 µM (inactive) | GI50 (HCT-116): 18.4 µM (inactive) | GI50 (SW-620): 34.4 µM (inactive) | GI50 (M14): 17.8 µM (inactive) | GI50 (NCI-H23): 22.6 µM (inactive) | GI50 (OVCAR-4): 22 µM (inactive) | GI50 (A549): 27.2 µM (inactive) | GI50 (SK-MEL-5): 18 µM (inactive) | GI50 (DU-145): 42.1 µM (inactive) | GI50 (K562): 65.6 µM (inactive) | GI50 (OVCAR-3): 18.3 µM (inactive) | GI50 (SF-539): 20.5 µM (inactive) | GI50 (SK-MEL-28): 41.9 µM (inactive) | GI50 (HCT-15): 31.4 µM | GI50 (SR): 5.45 µM (inactive) | GI50 (HL-60): 13 µM (inactive) | GI50 (A498): 21.8 µM (inactive) | GI50 (LOX IMVI): 17.8 µM (inactive) | GI50 (Malme-3M): 20.3 µM (inactive) | GI50 (EKVX): 25.8 µM (inactive) | GI50 (NCI-H460): 17.5 µM (inactive) | GI50 (SNB-19): 36.9 µM (inactive) | GI50 (T47D): 29.6 µM (inactive) | GI50 (Hs-578T): 24.3 µM (inactive) | GI50 (RPMI-8226): 22.1 µM (inactive) | GI50 (SK-MEL-2): 20.6 µM (inactive) | GI50 (PC-3): 23.8 µM (inactive)

CCCc1cc(=O)oc2c3c(c4c(c12)OC(C)(C)CC4)O[C@@H](C)[C@H](C)[C@H]3O
GI50 (MCF7): 12.6 µM (inactive) | GI50 (HCC 2998): 13.6 µM (inactive) | GI50 (OVCAR-5): 12.7 µM (inactive) | GI50 (SF-295): 13.5 µM (inactive) | GI50 (SN12C): 4.22 µM (inactive) | GI50 (IGROV-1): 16.1 µM (inactive) | GI50 (SK-OV-3): 17.6 µM (inactive) | GI50 (U-251): 11.8 µM (inactive) | GI50 (HT-29): 8.3 µM (inactive) | GI50 (MDA-N): 2.69 µM (inactive) | GI50 (HOP-62): 14.9 µM (inactive) | GI50 (RXF 393): 11.3 µM (inactive) | GI50 (SF-268): 15.1 µM (inactive) | GI50 (KM12): 12.4 µM (inactive) | GI50 (COLO 205): 12.6 µM (inactive) | GI50 (UACC-62): 9.02 µM (inactive) | GI50 (UACC-257): 4.94 µM (inactive) | GI50 (MDA-MB-231): 2.16 µM (inactive) | GI50 (CCRF-CEM): 3.98 µM (inactive) | GI50 (MOLT-4): 3.85 µM (inactive) | GI50 (CAKI-1): 35.1 µM (inactive) | GI50 (786-0): 5.37 µM (inactive) | GI50 (BT-549): 5.06 µM (inactive) | GI50 (NCI-H226): 15.2 µM (inactive) | GI50 (MDA-MB-435): 5.94 µM (inactive) | GI50 (HOP-92): 13.6 µM (inactive) | GI50 (UO-31): 6.12 µM (inactive) | GI50 (OVCAR-8): 13.3 µM (inactive) | GI50 (HCT-116): 8.89 µM (inactive) | GI50 (SW-620): 15 µM (inactive) | GI50 (M14): 11.8 µM (inactive) | GI50 (NCI-H23): 12.2 µM (inactive) | GI50 (OVCAR-4): 10.1 µM (inactive) | GI50 (A549): 10.8 µM (inactive) | GI50 (SK-MEL-5): 6.7 µM (inactive) | GI50 (DU-145): 17.8 µM (inactive) | GI50 (K562): 2.79 µM (inactive) | GI50 (OVCAR-3): 15.7 µM (inactive) | GI50 (NCI/ADR-RES): 9.4 µM (inactive) | GI50 (SF-539): 17.6 µM (inactive) | GI50 (SK-MEL-28): 15.6 µM (inactive) | GI50 (HCT-15): 11.2 µM | GI50 (SNB-75): 10.3 µM (inactive) | GI50 (LOX IMVI): 15.4 µM (inactive) | GI50 (Malme-3M): 14.4 µM (inactive) | GI50 (EKVX): 12.2 µM (inactive) | GI50 (NCI-H460): 8.49 µM (inactive) | GI50 (SNB-19): 14 µM (inactive) | GI50 (T47D): 6.58 µM (inactive) | GI50 (Hs-578T): 15.8 µM (inactive) | GI50 (RPMI-8226): 4.35 µM (inactive) | GI50 (SK-MEL-2): 14.6 µM (inactive) | GI50 (PC-3): 4.23 µM (inactive)
